The values that follow are results of earlier work, collected in PMC3779694 (Hepatology (Baltimore, Md.), 2011).

Each structure is given as a SMILES string.

This series relates to subjects with a variety of chronic liver diseases, mostly chronic hepatitis C. The note with it: five subjects with NASH, 14-day regimen; cited from earlier work.

Regarding `C[C@H](NC(=O)C(=O)Nc1ccccc1C(C)(C)C)C(=O)N[C@@H](CC(=O)O)C(=O)COc1c(F)c(F)cc(F)c1F` [IDN-6556], the “ALT reduction in subjects with NASH” value was 59%.
